Legend:
Format in all cases: in vivo, human
[1] = test system: premenopausal women with uterine fibroids and heavy menstrual bleeding; test: Phase 2a uterine fibroid trial: menstrual blood loss by alkaline hematin (AH) method; conditions: for percent of subjects who achieved the composite bleeding endpoint (MBL <80 mL at Final Month and ≥50% reduction in MBL from baseline): last 28 days of treatment, AH method, placebo 30%; for Average Total Blood Loss Measured by AH Method During Treatment: 3 months of treatment; for Average Blood Loss Per Cycle Measured by AH Method in Screening: screening (baseline before treatment)
Description: Methods for analyzing menstrual blood loss are known in the art and include, for example, the alkaline hematin method. The alkaline hematin method is based on the quantitation of menstrual blood collected on sanitary products (Hallberg L., Nilsoon L., Determination of Menstrual Blood Loss. Scand. J. Clin. Lab. Invest., 1964; 16:244-248). The method uses a strong alkaline solution to chemically convert the heme from bloodstained sanitary products to alkaline hematin, which is measured colorimetrically. When compared to a subject's serum hemoglobin (Hgb), the volume of blood loss in the menstrual products can be determined.
This example is a Phase 2a, multicenter, double-blind, placebo-controlled, randomized trial (N=280) with a 3-month treatment duration evaluating the safety and efficacy of Elagolix administered with or without Activella® in premenopausal women with uterine fibroids.
It evaluates the safety and efficacy of […] of Elagolix (100 mg BID, 200 mg BID, 200 mg BID plus low dose Activella® (a combination of 0.5 mg estradiol and 0.1 mg northindrone acetate), 300 mg BID, 300 mg BID plus 1.0 mg of Estrace and 200 mg cyclical Prometrium (collectively referred to as “EP”), 400 mg QD and 600 QD) versus placebo (PBO) to reduce uterine bleeding associated with uterine fibroids and to reduce fibroid volume and uterine volume in premenopausal women 20 to 49 years of age with heavy menstrual bleeding (HMB; >80 mL blood loss per menstrual cycle). The study involved the following six (6) cohorts:
There are a number of efficacy endpoints, but a composite endpoint consisting of two bleeding assessments was used to assess one measure of efficacy. It included the percent of subjects who achieved a menstrual blood loss (MBL) volume of <80 mL at the Final Month (last 28 days of treatment), and also achieved a ≥50% reduction in MBL volume from baseline to the Final Month (last 28 days of treatment) as measured by the Alkaline Hematin (AH) method. Eighty-five percent (85%), 97%, and 30% of subjects achieved the composite bleeding assessment endpoint in the 200 mg BID, 300 mg BID, and placebo groups, respectively (P<0.05 for 200 mg BID versus placebo in cohort 1, and 300 mg BID versus placebo in cohort 2). Eighty-two percent (82%) of subjects in the 200 mg BID+low-dose Activella® (low dose Activella® is a combination of (a combination of 0.5 mg estradiol and 0.1 mg norethindrone acetate) group achieved this composite endpoint. With respect to fibroid and uterine volumes, 63%, 55%, and 29% of subjects achieved a ≥25% reduction in fibroid volume and 50%, 68%, and 9% achieved a ≥25% reduction in uterine volume in the 200 mg BID, 300 mg BID, and placebo groups, respectively. In the 200 mg BID+low dose group, 53% and 42% of subjects achieved a ≥25% reduction in fibroid and uterine volume, respectively. Quality of life (QoL) measures were also determined using the “Responsiveness of the uterine fibroid symptom and health-related quality of life questionnaire” (UFS-QOL) (Harding, Gale, Coyne Karin S., Thompson Christine L., Spies James B, United BioSource Corporation, 7101 Wisconsin Avenue, Suite 600, Bethesda, Md., 20814, USA, Health and Quality Life Outcomes, 2008, 6, page 99).

[2] = test system: premenopausal women with endometriosis; test: Phase 2 endometriosis studies: endometriosis-associated pain efficacy
Description: Six Phase 2 randomized, double-blind, placebo-, and/or active-controlled, parallel-group, multiple dose studies were completed to evaluate elagolix as a treatment for endometriosis associated pain. Efficacy was assessed for dysmenorrhea (DYS), nonmenstrual pelvic pain (NMPP), dyspareunia, and general pelvic pain with a range of instruments.
Additional efficacy assessments included quality of life and the use of analgesics for control of endometriosis pain.
Across these Phase 2 studies, the enrollment criteria were similar and were intended to select premenopausal women aged 18 to 49 years of age with endometriosis confirmed by visual inspection (laparoscopy or laparotomy within 5 to 8 years of screening) who experienced moderate to severe endometriosis-associated pain. Women were included if they had regular menstrual cycles and no significant uterine fibroids or pelvic lesions.
Total daily doses of elagolix ranging from 75 to 250 mg were evaluated across a range of pain instruments measuring DYS, NMPP, or general pelvic pain (including patient global impression of change), during 12 or 24 weeks of treatment.

women with endometriosis = test: Phase 2 endometriosis studies: safety and tolerability
Text: The safety and tolerability of elagolix in women with endometriosis has been evaluated in 6 completed Phase 2 studies including 708 women who received at least 1 dose of elagolix. Overall, 475 women have received elagolix for at least 12 weeks and 278 women for a period of at least 24 weeks. The majority of women were Caucasian (78.9% to 100%), while approximately 7% were black and approximately 4.5% were Hispanic. The mean age across these six Phase 2 studies was 31 to 33 years (range 18 to 48 years) and mean body mass index (BMI) of 23 to 28 kg/m. Overall, 40% to 70% of women had received prior therapy for the treatment of endometriosis, and hormonal contraceptives were the most common class of drug prescribed for the condition. In addition, the majority were receiving analgesic medications (nonsteroidal anti-inflammatory drugs, opioids, and/or other) prior to study enrollment.
None of these events were serious and they contributed to less than 1% of study discontinuations.

Question: For `COc1cccc(-c2c(C)n(Cc3c(F)cccc3C(F)(F)F)c(=O)n(C[C@H](NCCCC(=O)O)c3ccccc3)c2=O)c1F` [Elagolix, 4-((R)-2-[5-(2-fluoro-3-methoxy-phenyl)-3-(2-fluoro-6-trifluoromethyl-benzyl)-4-methyl-2,6-dioxo-3,6-dihydro-2H-pyrimidin-1-yl]-1-phenyl-ethylamino)-butyric acid], which “percent of subjects who achieved the composite bleeding endpoint (MBL <80 mL at Final Month and ≥50% reduction in MBL from baseline)” value ([1]; 200 mg BID) is on record?
Answer: 85%

Question: And the inhibition of bleeding ([1]; 300 mg BID without add-back therapy, most of women achieved amenorrhea)?
Answer: maximum inhibition of bleeding

Question: What about the “percent of subjects who achieved the composite bleeding endpoint (MBL <80 mL at Final Month and ≥50% reduction in MBL from baseline)” value ([1]; 300 mg BID) of the same compound?
Answer: 97%

Question: And the inhibition of bleeding ([1]; 400 mg QD, compared with 300 mg BID)?
Answer: slightly less effective

Question: What about the inhibition of bleeding ([1]; 600 mg QD, compared with 300 mg BID) of the same compound?
Answer: slightly less effective

Question: And the “Average Total MBL from Days 36-65 Post-Baseline” value ([1]; Elagolix 100 BID, N = 26)?
Answer: 100.9 mL

Question: And the “Average Total MBL in Days 66-95 Post-Baseline” value ([1]; Elagolix 100 BID, N = 26)?
Answer: 65.4 mL

Question: And the “Average total MBL from days 6-35 post-baseline” value ([1]; Elagolix 100 BID, N = 26)?
Answer: 33.2 mL

Question: And the “Average Total Blood Loss Measured by AH Method During Treatment” value (from here on “Average Total Blood Loss Measured”) ([1]; Elagolix 100 BID, N = 26)?
Answer: 198.4 mL

Question: What about the “Average Total MBL from Days 36-65 Post-Baseline” value ([1]; Elagolix 200 BID, N = 28) of the same compound?
Answer: 5.5 mL

Question: What about the “Average Total MBL in Days 66-95 Post-Baseline” value ([1]; Elagolix 200 BID, N = 28) of the same compound?
Answer: 41.5 mL

Question: What about the “Average total MBL from days 6-35 post-baseline” value ([1]; Elagolix 200 BID, N = 28) of the same compound?
Answer: 0 mL

Question: And the “Average Total Blood Loss Measured” value ([1]; Elagolix 200 BID, N = 28)?
Answer: 47.0 mL

Question: And the “Average Total MBL from Days 36-65 Post-Baseline” value ([1]; Elagolix 300 BID, N = 26)?
Answer: 0 mL

Question: What about the “Average Total MBL in Days 66-95 Post-Baseline” value ([1]; Elagolix 300 BID, N = 26) of the same compound?
Answer: 4.3 mL

Question: And the “Average total MBL from days 6-35 post-baseline” value ([1]; Elagolix 300 BID, N = 26)?
Answer: 0 mL

Question: And the “Average Total Blood Loss Measured” value ([1]; Elagolix 300 BID, N = 26)?
Answer: 4.3 mL

Question: And the “Average Total MBL from Days 36-65 Post-Baseline” value ([1]; Elagolix 400 QD, N = 26)?
Answer: 12.4 mL

Question: And the “Average Total MBL in Days 66-95 Post-Baseline” value ([1]; Elagolix 400 QD, N = 26)?
Answer: 21.6 mL

Question: And the “Average total MBL from days 6-35 post-baseline” value ([1]; Elagolix 400 QD, N = 26)?
Answer: 14.9 mL

Question: And the “Average Total Blood Loss Measured” value ([1]; Elagolix 400 QD, N = 26)?
Answer: 38.4 mL

Question: And the “Average Total MBL from Days 36-65 Post-Baseline” value ([1]; Elagolix 600 QD, N = 24)?
Answer: 35.0 mL

Question: And the “Average Total MBL in Days 66-95 Post-Baseline” value ([1]; Elagolix 600 QD, N = 24)?
Answer: 14.9 mL

Question: What about the “Average total MBL from days 6-35 post-baseline” value ([1]; Elagolix 600 QD, N = 24) of the same compound?
Answer: 27.6 mL

Question: What about the “Average Total Blood Loss Measured” value ([1]; Elagolix 600 QD, N = 24) of the same compound?
Answer: 69.6 mL

Question: And the “Average Blood Loss Per Cycle Measured by AH Method in Screening” value (“Average Blood Loss Per Cycle Measured” below) ([1]; group Elagolix 100 BID, N = 26)?
Answer: 276.4 mL

Question: And the “Average Blood Loss Per Cycle Measured” value ([1]; group Elagolix 200 BID, N = 28)?
Answer: 287.4 mL

Question: What about the “Average Blood Loss Per Cycle Measured” value ([1]; group Elagolix 300 BID, N = 26) of the same compound?
Answer: 224.8 mL

Question: What about the “Average Blood Loss Per Cycle Measured” value ([1]; group Elagolix 400 QD, N = 26) of the same compound?
Answer: 220.3 mL

Question: And the “Average Blood Loss Per Cycle Measured” value ([1]; group Elagolix 600 QD, N = 24)?
Answer: 228.7 mL

Question: And the “quality of life assessments” value ([2]; Phase 2 endometriosis studies)?
Answer: improved quality of life assessments

Question: And the symptoms of dyspareunia ([2]; Phase 2 endometriosis studies)?
Answer: reduced

Question: And the “effect on DYS and NMPP compared with DMPA-SC” value ([2]; daily dose of 150 mg)?
Answer: comparable effect

Question: What about the “effect on DYS and NMPP compared with leuprorelin” value ([2]; daily doses of 150 mg and 250 mg) of the same compound?
Answer: less effect

Question: And the endometriosis-associated pain ([2]; daily doses of 100 to 250 mg, 12 or 24 weeks)?
Answer: clinically meaningful reductions

Question: And the “overall usage of analgesics for pain control” value ([2]; elagolix treatment arms)?
Answer: decreased

Question: And the “most common adverse events” value (women with endometriosis; 12-week and 24-week analysis sets, incidence similar to DMPA-SC in 24-week analysis)?
Answer: headache and nausea

Question: What about the safety and tolerability (women with endometriosis; all daily doses (100 to 250 mg) evaluated) of the same compound?
Answer: safe and well tolerated

Question: And the “incidence of AEs that led to discontinuations” value (women with endometriosis; completed Phase 2 endometriosis studies)?
Answer: 4.8%

Question: And the “study discontinuations contributed by headache and nausea” value (women with endometriosis; none of these events serious)?
Answer: less than 1%

From patent publication US11707464B2, “Methods of treating heavy menstrual bleeding” (AbbVie Inc., priority 2013, dated 2023)
